What is called IC50 is the concentration at which inhibition is half-maximal. The low end stands for higher potency, the high end for lower potency.

The target in this experiment is T1, PTK2 (Homo sapiens, UniProt Q05397).
T1 construct: purchased Invitrogen PV3832
T1 sequence (Q05397 whole entry): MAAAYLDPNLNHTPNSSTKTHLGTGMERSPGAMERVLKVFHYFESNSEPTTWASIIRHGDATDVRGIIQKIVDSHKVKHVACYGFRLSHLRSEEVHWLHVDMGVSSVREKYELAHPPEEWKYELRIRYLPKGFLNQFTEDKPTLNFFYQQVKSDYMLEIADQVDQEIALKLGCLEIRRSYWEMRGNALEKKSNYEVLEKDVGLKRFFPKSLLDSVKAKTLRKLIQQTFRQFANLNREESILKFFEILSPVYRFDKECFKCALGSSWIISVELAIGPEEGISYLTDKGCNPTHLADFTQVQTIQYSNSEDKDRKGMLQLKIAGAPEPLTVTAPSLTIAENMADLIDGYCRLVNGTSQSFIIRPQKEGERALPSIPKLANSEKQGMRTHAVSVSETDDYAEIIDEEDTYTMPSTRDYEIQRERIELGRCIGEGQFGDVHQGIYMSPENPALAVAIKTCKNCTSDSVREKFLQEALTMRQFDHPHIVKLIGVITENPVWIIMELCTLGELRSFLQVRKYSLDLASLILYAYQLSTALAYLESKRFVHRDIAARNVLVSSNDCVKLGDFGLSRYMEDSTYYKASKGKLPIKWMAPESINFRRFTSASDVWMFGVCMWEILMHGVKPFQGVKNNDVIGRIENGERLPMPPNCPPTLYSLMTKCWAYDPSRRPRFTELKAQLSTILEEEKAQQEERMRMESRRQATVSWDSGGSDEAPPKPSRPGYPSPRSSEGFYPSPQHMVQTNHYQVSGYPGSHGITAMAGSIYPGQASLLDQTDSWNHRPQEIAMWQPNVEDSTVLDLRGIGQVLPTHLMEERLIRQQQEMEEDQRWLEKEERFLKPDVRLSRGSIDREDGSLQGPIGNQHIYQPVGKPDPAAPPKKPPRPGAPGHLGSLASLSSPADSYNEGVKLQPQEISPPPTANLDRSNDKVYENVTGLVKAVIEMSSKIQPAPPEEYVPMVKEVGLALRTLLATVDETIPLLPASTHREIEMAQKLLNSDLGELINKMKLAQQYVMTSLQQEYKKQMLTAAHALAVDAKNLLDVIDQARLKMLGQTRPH
Put plainly: PTK2 enzyme test Assay 2 (DELFIA, poly-Glu-Tyr substrate, PT66 antibody). The following applies: Assay 2 (values marked *); 1 h pre-incubation, 50 μM ATP mix, final DMSO 0.5%. The format is biochemical. An excerpt:
This test uses active PTK2 enzyme (Invitrogen Code PV3832) and poly-Glu-Tyr (4:1, Sigma P-0275) as the kinase substrate. The kinase activity is detected by means of the phosphorylation of the substrate in a DELFIA™ assay. The phosphorylated substrate is detected with the europium-labelled phosphotyrosine antibody PT66 (Perkin Elmer, No.: AD0040).
In order to determine concentration-activity curves with PTK2-inhibitors the compounds are serially diluted first of all in 100% DMSO and then in kinase dilution buffer (20 mM TRIS/HCl pH 7.5, 0.1 mM EDTA, 0.1 mM EGTA, 0.286 mM sodium orthovanadate, 10% glycerol with the addition of freshly prepared BSA (fraction V, 1 mg/mL) and DTT (1 mM)) and 10 μL of each dilution are dispensed per well in a 96-well microtitre plate (clear U-shaped base plate, Greiner No. 650101) (the inhibitors are tested in duplicates) and mixed with 10 μL/well of PTK2 kinase (0.01 μg/well). PTK2 kinase is diluted accordingly beforehand with kinase dilution buffer. The diluted PTK2 inhibitor and the PTK2 kinase are pre-incubated for 1 h at RT and shaken at 500 revolutions per min. Then 10 μL/well poly-Glu-Tyr substrate (25 μg/well poly-Glu-Tyr, 0.05 μg/well biotinylated poly-Glu-Tyr dissolved in 250 mM TRIS/HCl pH 7.5, 9 mM DTT) are added. The reaction is started by the addition of 20 μL of ATP Mix (30 mM TRIS/HCl pH 7.5, 0.02% Brij, 0.2 mM sodium orthovanadate, 10 mM magnesium acetate, 0.1 mM EGTA, 1× phosphatase inhibitor cocktail 1 (Sigma, No.: P2850), 50 μM ATP (Sigma, No.: A3377; 15 mM stock solution))—the final concentration of DMSO is 0.5%. After 1 h kinase reaction (the plates are shaken at 500 rpm), the reaction is stopped by the addition of 12 μL/well of 100 mM EDTA, pH 8, and shaken for a further 5 min at RT (500 U/min). 55 μL of the reaction mixture are transferred into a streptavidin plate (Strepta Well High Bind (transparent, 96-well) made by Roche, No.: 11989685001) and incubated for 1 h at RT (shaking at 500 rpm). Then the microtitre plate is washed five times with 200 μL/well D-PBS (Invitrogen, No. 14190). 100 μL of a solution containing DELFIA Eu-N1 Anti-Phosphotyrosine PT66 antibody (Perkin Elmer, No.: AD0040, diluted 1:9000 in DELFIA test buffer (Perkin Elmer, No.: 1244-111)) is then added and it is incubated for 1 h at RT (shaking at 500 rpm). Then the plate is washed five times with 200 μL/well DELFIA washing buffer (Perkin Elmer, No.: 1244-114), 200 μL/well strengthening solution (Perkin Elmer, No.: 1244-105) is added and the whole is incubated for 10 min at RT (shaking at 300 rpm).
The time-delayed europium fluorescence is then measured in a microtitre plate reader (VICTOR^3, Perkin Elmer). The positive control consists of wells that contain solvent (0.5% DMSO in test buffer) and display uninhibited kinase activity. Wells that contain test buffer instead of enzyme act as a control for the background kinase activity.
The IC50 values are determined from concentration-activity analyses by iterative calculation using a sigmoid curve analysis algorithm (FIFTY, based on GraphPAD Prism Version 3.03) with a variable Hill coefficient.
Regarding `COc1cc(N2CCNCC2)c(Cl)cc1Nc1ncc(C(F)(F)F)c(N[C@@H]2Cc3ccccc3[C@H]2N(C)S(C)(=O)=O)n1` [Example I-76, N-{(1R,2R)-2-[2-(5-chloro-2-methoxy-4-piperazin-1-yl-phenylamino)-5-trifluoromethyl-pyrimidin-4-ylamino]-indan-1-yl}-N-methyl-methanesulphonamide], the IC50 amounted to 0.76 nM.

The molecule `COc1ccc(C(=O)N(C)CCN2CCCC2)cc1Nc1ncc(C(F)(F)F)c(N[C@@H]2Cc3ccccc3[C@H]2N(C)S(C)(=O)=O)n1` [Example I-85] gave an IC50 of 0.44 nM.

Take `COc1cc(N2CCN(C)CC2=O)ccc1Nc1ncc(C(F)(F)F)c(N[C@@H]2Cc3ccccc3[C@H]2N(C)S(C)(=O)=O)n1` [Example I-86]: 0.31 nM corresponded to half-maximal inhibition (IC50).

`COc1ccc(NC(=O)C2CCN(C)C2)cc1Nc1ncc(C(F)(F)F)c(N[C@@H]2Cc3ccccc3[C@H]2N(C)S(C)(=O)=O)n1` (stereo partly drawn) [Example I-61, 1-methyl-pyrrolidine-3-carboxylic acid (3-{4-[(1R,2R)-1-(methanesulphonyl-methyl-amino)-indan-2-ylamino]-5-trifluoromethyl-pyrimidin-2-ylamino}-4-methoxy-phenyl)-amide] had a half-inhibitory concentration (IC50) of 0.43 nM.

The molecule `COc1cc(F)c(C(=O)NC2CCN(C)CC2)cc1Nc1ncc(C(F)(F)F)c(N[C@@H]2Cc3ccccc3[C@H]2N(C)S(C)(=O)=O)n1` [Example I-80, 2-fluoro-5-{4-[(1R,2R)-1-(methanesulphonyl-methyl-amino)-indan-2-ylamino]-5-trifluoromethyl-pyrimidin-2-ylamino}-4-methoxy-N-(1-methyl-piperidin-4-yl)-benzamide] had a concentration for half-maximal inhibition (IC50) of 0.36 nM.

Regarding `COc1cc(N2CCN(C(C)(C)C)CC2)ccc1Nc1ncc(C(F)(F)F)c(N[C@@H]2Cc3ccccc3[C@H]2NS(C)(=O)=O)n1` [Example I-91], inhibition was half-maximal at 0.75 nM (IC50).

The molecule `COc1cc(N2CCNCC2=O)ccc1Nc1ncc(C(F)(F)F)c(N[C@@H]2Cc3ccccc3[C@H]2N(C)S(C)(=O)=O)n1` [Example I-87] came in with an IC50 of 0.48 nM.

The molecule `COc1cc(N2CCN(C(C)(C)C)CC2)ccc1Nc1ncc(C(F)(F)F)c(N[C@@H]2Cc3ccccc3[C@H]2N(C)S(C)(=O)=O)n1` [Example I-66, N-((1R,2R)-2-{2-[4-(4-tert-butyl-piperazin-1-yl)-2-methoxy-phenylamino]-5-trifluoromethyl-pyrimidin-4-ylamino}-indan-1-yl)-N-methyl-methanesulphonamide] displayed an IC50 of 0.6 nM.

On to `COc1ccc(C(=O)NC2CCN(C)CC2)cc1Nc1ncc(C(F)(F)F)c(N[C@@H]2Cc3ccccc3[C@H]2N(C)S(C)(=O)=O)n1` [Example I-69], for which the IC50 amounted to 0.37 nM.

The molecule `COc1cc(C(=O)NN2CCN(C)CC2)ccc1Nc1ncc(C(F)(F)F)c(N[C@@H]2Cc3ccccc3[C@H]2N(C)S(C)(=O)=O)n1` [Example I-83] registered an IC50 of 0.47 nM.

For `COc1ccc(C(=O)NCCN(C)C)cc1Nc1ncc(C(F)(F)F)c(N[C@@H]2Cc3ccccc3[C@H]2N(C)S(C)(=O)=O)n1` [Example I-63, N-(2-dimethylamino-ethyl)-3-{4-[(1R,2R)-1-(methanesulphonyl-methyl-amino)-indan-2-ylamino]-5-trifluoromethyl-pyrimidin-2-ylamino}-4-methoxy-benzamide], the IC50 came out at 0.71 nM.

In turn, `COc1cc(C)c(C(=O)NC2CCOCC2)cc1Nc1ncc(C(F)(F)F)c(N[C@@H]2Cc3ccccc3[C@H]2N(C)S(C)(=O)=O)n1` [Example I-82] yielded an IC50 of 0.36 nM.

Turning to `COc1cc(N2CCN(C)CC2)c(C)cc1Nc1ncc(C(F)(F)F)c(N[C@@H]2Cc3ccccc3[C@H]2N(C)S(C)(=O)=O)n1` [Example I-77], the IC50 is 0.56 nM.

In turn, `CN1CCC(NC(=O)c2cccc(Nc3ncc(C(F)(F)F)c(N[C@@H]4Cc5ccccc5[C@H]4N(C)S(C)(=O)=O)n3)c2)CC1` [Example I-88] showed an IC50 of 0.26 nM.

Molecule `COc1ccc(C(=O)NC2CCN(C)CC2)cc1Nc1ncc(Cl)c(N[C@@H]2Cc3ccccc3[C@H]2N(C)S(C)(=O)=O)n1` [Example I-93] yielded an IC50 of 0.6 nM.

On to `COc1cc(F)c(C(=O)NC2CCN(C)CC2)cc1Nc1ncc(Cl)c(N[C@@H]2Cc3ccccc3[C@H]2N(C)S(C)(=O)=O)n1` [Example I-75, 5-{5-chloro-4-[(1R,2R)-1-(methanesulphonyl-methyl-amino)-indan-2-ylamino]-pyrimidin-2-ylamino}-2-fluoro-4-methoxy-N-(1-methyl-piperidin-4-yl)-benzamide], for which 0.3 nM corresponded to half-maximal inhibition (IC50).

The molecule `COc1cc(C(=O)NCCN(C)C)ccc1Nc1ncc(C(F)(F)F)c(N[C@@H]2CCc3ccccc3[C@H]2N(C)S(C)(=O)=O)n1` [Example I-94] registered an IC50 of 16 nM.

Take `COc1ccc(NC(=O)C2CCN(C)CC2)cc1Nc1ncc(C(F)(F)F)c(N[C@@H]2Cc3ccccc3[C@H]2N(C)S(C)(=O)=O)n1` [Example I-62, 1-methyl-piperidine-4-carboxylic acid (3-{4-[(1R,2R)-1-(methanesulphonyl-methyl-amino)-indan-2-ylamino]-5-trifluoromethyl-pyrimidin-2-ylamino}-4-methoxy-phenyl)-amide]: half-maximal inhibition (IC50) required 0.62 nM.

In turn, `COc1cc(NC(=O)C2CCN(C)CC2)ccc1Nc1ncc(C(F)(F)F)c(N[C@@H]2Cc3ccccc3[C@H]2N(C)S(C)(=O)=O)n1` [Example I-73, 1-methyl-piperidine-4-carboxylic acid (4-{4-[(1R,2R)-1-(methanesulphonyl-methyl-amino)-indan-2-ylamino]-5-trifluoromethyl-pyrimidin-2-ylamino}-3-methoxy-phenyl)-amide] yielded an IC50 of 0.48 nM.

Source of the values: patent US8410126B2, “Pyrimidine inhibitors of PKTK2” (Boehringer Ingelheim International GmbH, priority 2009, dated 2013).
